US10899751B2, “Compounds, compositions, and methods for increasing CFTR activity” (Proteostasis Therapeutics, Inc., priority 2016, dated 2021)
pEC50: −log10 of the molar value.

Target: T1, ΔF508-CFTR (Homo sapiens, UniProt P13569, DEL508-508)
T1 construct: Primary lung epithelial cells homozygous for the Cystic Fibrosis-causing ΔF508 mutation were differentiated for a minimum of 4 weeks; endogenous in cells; host or cells: primary lung (bronchial) epithelial cells (hBE) homozygous for ΔF508, differentiated at an air-liquid interface
T1 sequence (P13569 with tags, fused parts or gaps DEL508-508): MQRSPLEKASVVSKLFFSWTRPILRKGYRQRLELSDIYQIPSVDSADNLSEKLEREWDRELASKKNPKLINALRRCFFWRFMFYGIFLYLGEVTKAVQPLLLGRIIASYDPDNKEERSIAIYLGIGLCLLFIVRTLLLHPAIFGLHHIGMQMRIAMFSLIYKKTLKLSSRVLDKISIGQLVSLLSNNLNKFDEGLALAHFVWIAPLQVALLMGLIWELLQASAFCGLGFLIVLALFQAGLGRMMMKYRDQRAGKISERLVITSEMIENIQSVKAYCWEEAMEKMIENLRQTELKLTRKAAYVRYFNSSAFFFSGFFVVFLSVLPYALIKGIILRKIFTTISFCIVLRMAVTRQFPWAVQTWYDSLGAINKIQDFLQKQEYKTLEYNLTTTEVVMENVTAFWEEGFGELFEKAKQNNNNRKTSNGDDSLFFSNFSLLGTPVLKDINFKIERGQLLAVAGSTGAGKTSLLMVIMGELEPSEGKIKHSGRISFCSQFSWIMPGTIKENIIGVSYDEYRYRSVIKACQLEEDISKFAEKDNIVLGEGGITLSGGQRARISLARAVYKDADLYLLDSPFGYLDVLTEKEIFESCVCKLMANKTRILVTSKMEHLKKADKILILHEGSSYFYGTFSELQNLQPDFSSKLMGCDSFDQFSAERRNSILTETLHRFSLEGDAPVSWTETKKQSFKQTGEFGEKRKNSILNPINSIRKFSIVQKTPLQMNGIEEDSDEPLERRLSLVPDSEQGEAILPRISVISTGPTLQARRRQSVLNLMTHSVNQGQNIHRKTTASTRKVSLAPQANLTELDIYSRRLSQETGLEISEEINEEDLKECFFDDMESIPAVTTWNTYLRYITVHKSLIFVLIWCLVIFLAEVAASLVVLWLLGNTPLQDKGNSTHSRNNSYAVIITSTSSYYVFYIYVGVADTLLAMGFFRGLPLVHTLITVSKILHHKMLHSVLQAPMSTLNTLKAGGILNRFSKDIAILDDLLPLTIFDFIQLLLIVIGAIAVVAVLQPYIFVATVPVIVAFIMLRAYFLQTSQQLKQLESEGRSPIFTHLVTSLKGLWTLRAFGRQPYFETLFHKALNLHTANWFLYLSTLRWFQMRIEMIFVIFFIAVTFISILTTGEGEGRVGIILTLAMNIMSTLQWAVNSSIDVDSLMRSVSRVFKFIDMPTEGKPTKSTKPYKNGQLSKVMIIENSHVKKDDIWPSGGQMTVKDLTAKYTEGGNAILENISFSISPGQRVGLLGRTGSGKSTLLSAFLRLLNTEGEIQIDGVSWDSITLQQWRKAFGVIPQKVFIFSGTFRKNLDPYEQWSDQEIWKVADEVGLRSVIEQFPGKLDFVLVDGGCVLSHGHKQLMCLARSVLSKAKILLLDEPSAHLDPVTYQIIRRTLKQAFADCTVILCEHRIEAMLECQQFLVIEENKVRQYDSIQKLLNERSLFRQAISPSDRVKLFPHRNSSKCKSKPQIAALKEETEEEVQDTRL
Assay: hBE equivalent current (Ieq) assay
Format: cell-based
Conditions: primary lung epithelial cells homozygous for ΔF508, 24 h treatment; for Ieq Activity: compound at its EC50 and VX-809 at 3 uM; for pEC50: AUC of equivalent chloride current after forskolin plus VX-770
Method: Primary lung epithelial cells homozygous for the Cystic Fibrosis-causing ΔF508 mutation were differentiated for a minimum of 4 weeks in an air-liquid interface on Costar 24 well HTS filter plates prior to the equivalent current (Ieq) measurements. Cells were apically mucus-washed for 30 minutes 24 h prior to treatment with compounds. The basolateral media was removed and replaced with media containing the compound of interest diluted to its final concentration from DMSO stocks. Treated cells were incubated at 37° C. and 5% CO2 for 24 hours. At the end of the treatment period, the media was changed to the Ieq experimental solution for 30 minutes before the experiment and plates are maintained in a CO2-free incubator during this period. The plates containing the cells were then placed in pre-warmed heating blocks at 36° C.±0.5 for 15 minutes before measurements are taken. The transepithelial voltage (VT) and conductance (GT) were measured using a custom 24 channel current clamp (TECC-24) with 24 well electrode manifold. The Ieq assay measurements were made following additions with standardized time periods: • 1. The baseline VT and GT values were measured for approximately 20 minutes. • 2. Benzamil was added to block ENaC for 15 minutes. • 3. Forskolin plus VX-770 were added to maximally activate ΔF508-CFTR for 27 minutes. • 4. Bumetanide was added to inhibit the NaK2Cl cotransporter and shut-off secretion of chloride.
The activity data captured was the area under the curve (AUC) for the traces of the equivalent chloride current. The AUC was collected from the time of the forskolin/VX-770 addition until the inhibition by bumetanide addition. Correction in response to compound treatment was scored as the increase in the AUC for compound-treated samples over that of vehicle-treated samples.
(** indicates activity ≥200% of VX-809 (3 uM) with compound at its EC50 and VX-809 at 3 uM; * indicates activity 100-200% of VX-809 (3 uM) with compound at its EC50 and VX-809 at 3 uM. ##indicates activity <100% of VX-809 (3 uM) with compound at its EC50 and VX-809 at 3 uM. In Table 2, an Ieq EC50 value of “A” indicates the compound's EC50 is ≤1 μM; an Ieq EC50 value of “B” indicates the compound's EC50 is between 1 and 10 μM; an Ieq EC50 value of “C” indicates the compound's EC50 is ≥10 μM.

O=C(N[C@H]1C[C@H](C(=O)N2CCC2)C1)c1cc(-c2ccccc2)on1 [Example 2, N-((1r,3r)-3-(Azetidine-1-carbonyl)cyclobutyl)-5-phenylisoxazole-3-carboxamide]
Ieq Activity: ** (** indicates activity ≥200% of VX-809 (3 uM) with compound at its EC50 and VX-809 at 3 uM) | pEC50: ≥ 6.00

CN1CCN(C(=O)CCCCNC(=O)c2cc(-c3ccccc3)on2)CC1 [Example 11]
Ieq Activity: ## (##indicates activity <100% of VX-809 (3 uM) with compound at its EC50 and VX-809 at 3 uM) | pEC50: ≥ 6.00

O=C(NCCCC(=O)N1CCC1)c1cc(-c2ccccc2)no1 [Example 3, N-(4-(Azetidin-1-yl)-4-oxobutyl)-3-phenylisoxazole-5-carboxamide]
Ieq Activity: * (* indicates activity 100-200% of VX-809 (3 uM) with compound at its EC50 and VX-809 at 3 uM) | pEC50: 5.00 to 6.00

O=C(NCCC(=O)N1CCC1)c1cc(-c2ccccc2)on1 [Example 12]
Ieq Activity: * (* indicates activity 100-200% of VX-809 (3 uM) with compound at its EC50 and VX-809 at 3 uM) | pEC50: ≥ 6.00

O=C(NCCCC(=O)N1CCC1)c1cc(-c2ccc(F)cc2)on1 [Example 1, N-(4-(Azetidin-1-yl)-4-oxobutyl)-5-(4-fluorophenyl)isoxazole-3-carboxamide]
Ieq Activity: ** (** indicates activity ≥200% of VX-809 (3 uM) with compound at its EC50 and VX-809 at 3 uM) | pEC50: ≥ 6.00

O=C(N[C@H]1C[C@H](C(=O)N2CCC2)C1)c1cc(-c2ccccc2)no1 [Example 4, N-((1r,3r)-3-(Azetidine-1-carbonyl)cyclobutyl)-3-phenylisoxazole-5-carboxamide]
Ieq Activity: ** (** indicates activity ≥200% of VX-809 (3 uM) with compound at its EC50 and VX-809 at 3 uM) | pEC50: 5.00 to 6.00

O=C(N[C@H]1C[C@H](C(=O)N2CCC2)C1)c1cc(-c2ccc(F)cc2)on1 [Example 6]
Ieq Activity: * (* indicates activity 100-200% of VX-809 (3 uM) with compound at its EC50 and VX-809 at 3 uM) | pEC50: ≥ 6.00

O=C(NCCCCC(=O)N1CCC1)c1cc(-c2ccccc2)on1 [Example 8]
Ieq Activity: ## (##indicates activity <100% of VX-809 (3 uM) with compound at its EC50 and VX-809 at 3 uM) | pEC50: ≥ 6.00

CN1CCN(C(=O)CCCNC(=O)c2cc(-c3ccc(F)cc3)on2)CC1 [Example 10]
Ieq Activity: ## (##indicates activity <100% of VX-809 (3 uM) with compound at its EC50 and VX-809 at 3 uM) | pEC50: ≥ 6.00
